According to patent US20070015702A1, “Method of treatment and/or prevention of neuropathic pain” (Asahi Kasei Pharma Corporation, priority 2005, published 2007):
Where two headings read alike, the source gives them in different places.

Assays:
[1] = test system: chronic constriction injury model (CCI model); experiment: Intermittent subcutaneous administration of elcatonin in CCI model, nociceptive threshold; type: in vivo, rat
Description: On the 12th day or later after the constriction operation, ECT or vehicle was administered subcutaneously at 0.05 ml/B.W.100 g.

[2] = test system: chronic constriction injury model (CCI model)
Description: Under anesthesia with ether, a rat was placed in prone position, and while touching the right femur, the skin was dissected right above it. Biceps femoris was peeled at the center of the femur, and exposed by about 5 mm trying not to injure the sciatic nerve. Using 4-0 blade silk, the sciatic nerve was liegted loosely 4 times in turn from the peripheral side. Thereafter, the fascia and the skin were sutured.
Using withdrawal threshold and body weight on the 8th day after the constriction operation as indices, the rats were divided into a CCI-vehicle group (12 rats), and CCI-ECT 0.75 mU/kg/week, CCI-ECT 7.5 mU/kg/week and CCI-ECT 75 mU/kg/week groups (each 12 rats), by a randomization method (SAS system, version 8.2). […] Body weight used for administration was estimated body weight after initiation of administration and calculated by multiplying body weight at start of administration by body weight increase coefficient (1.1) obtained in the preliminary experiment. […]
First, the position of a pressure needle was controlled to confirm that an arm was horizontal to the thickness of a rat leg. […] When the rat withdrew the limb, the foot pedal was released, and a numerical value 0 to 25) of the moving matter on a scale was read. The read numerical value was multiplied by 20, to convert into pressed weight (withdrawal threshold). […]

[3] = test system: chronic constriction injury model (CCI model); experiment: Continuous administration of elcatonin in CCI model, hyperalgesia, withdrawal latency (BASILE Plantar Test); type: in vivo, rat
Description: An apparatus measures a time (withdrawal latency) until escaping after giving nociceptive heat stimulus to a posterior limb in a rat under unrestrained condition. Right hindlimb was measured as a measurement leg. Initially, a rat was placed in an acryl box on a glass plate, and domesticated for about 5 minutes. Amoving type I.R (infrared) generator (I.R. vessel) was placed under the glass plate, and “sight” cross (I.R. irradiation position) inscribed on an upper panel of the I.R. vessel was adjusted to inside of six pads on the right hind paw. In this procedure, contact of the glass plate and hind paw was confirmed. Subsequently, a start key was pushed and heat stimulation was imparted, and withdrawal latency for escaping behavior of a rat of withdrawing limb was measured. When escaping behavior is caused, a switch is automatically turned off, and reaction time is counted. […] Measurement was carried out under clean condition so that there was no feces and no urine on the glass plate.

[4] = rat, in vivo, sc
Description: Measurement of serum calcium value was conducted using calcium C-test wako (Wako).

[5] = Shinyaku to Rinsho, 1990, vol. 39, no. 2; cited from earlier work

dose per unit time (second) at which serum calcium value changed (serum calcium alteration threshold) [4] [mU/kg/second]	Substance	analgesic action (nociceptive threshold) ([1]; 15 U/kg s.c. 3 times a week)	day after initiation of administration from which the threshold initiated to recover ([1]; 15 U/kg s.c. 5 times a week) [days]	effect on nociceptive threshold until 3-rd day after initiation of administration ([1]; 15 U/kg s.c. intermittent, 3 or 5 times a week)	manifestation of analgesic effect ([1]; intermittent administration, dose further increased)	time after initiation of administration at which significant analgesic action was recognized ([2]; continuous s.c. administration, CCI rats) [h]	analgesic action (nociceptive threshold) ([2]; continuous s.c. mini osmotic pump, 0.75, 7.5, 75 mU/kg/week, from 11th day after constriction operation, vs vehicle group, Williams test)	extent of analgesic action across dose range ([3]; 0.00075-75 U/kg/week continuous)	analgesic action on continued administration ([3]; administration continued for 2 weeks)	analgesic action (withdrawal latency) ([3]; next day after initiation of continuous administration (12th day after operation), 0.00075, 0.0075, 0.075, 7.5, 75 U/kg/week, vs vehicle group)	ratio of calcitonin dose altering serum calcium value, rat versus human [5] [fold]	maximum effective dose of neuropathic pain treatment by continuous administration ([3]; Example 2, rat) [U/kg/week]	maximum effective dose of neuropathic pain treatment by continuous administration, in terms of second ([3]; Example 2, rat) [mU/kg/second]
	1-butylic acid-7-(L-2-aminobutylic acid)-26-L-aspartic acid-27-L-valine-29-L-alaninecalcitonin [elcatonin]	a significant action was not observed	4	an effect was not observed	delay of manifestation of an analgesic effect was not improved	16	significant analgesic action	approximately constant	continuance of an analgesic action	significant analgesic action was confirmed in all elcatonin administration groups			
15	calcitonin										25	75	0.124
